The values that follow come from patent US20210113482A1, “Poly (Alkyl Cyanoacrylate) Nanoparticles for Use in Treatment of Cancer” (Sintef TTO AS, priority 2018, published 2021).

The subject of data set [1] is MAS98.12 patient derived xenograft (PDX) breast tumor, basal-like. The data set is described as follows: Treatment efficacy in mice bearing MAS98.12 patient derived xenograft. The data set is classed as in vivo. As to the method: (§1) Treatment efficacy evaluation in nude mice.
(§2) The ortothopically growing basal-like xenograft model MAS98.12 has been established in house and was used as previously described in Lindholm et al (2012). When using the MDA-MB-231 cell line, 1.5 million cells were injected into the mammary fat pad and growing tumors were used for sequential implantation. As for the MAS98.12 model, 1-2 mm^3 pieces of healthy tumor tissue were implanted bilaterally into the mammary fat pad of female athymic mice. After the tumors reached approximately 5 mm in diameter, the mice were randomly assigned to the different treatment groups (the average volume of each group was 49-57 mm^3).
Statistical analyses. To calculate the significance in the efficacy studies, the area under the curve was calculated for each tumor and the mean values of the groups were compared using the Welch unequal variance. To determine whether there is a significant difference between the frequencies of the tumor regression in the different treatment groups, we used the Fischer's exact test. If not stated otherwise, an unpaired two-sided Student t-test without Welch correction was used. The statistical analyses were performed using either GraphPad Prism (version 7.00 for Windows, GraphPad Software, La Jolla, Calif., US) or Microsoft Excel.
For orientation: Xenograft models place foreign cells or tissue in a host animal.

The test system of another data set is MDA-MB-231 tumors. As to the kind of experiment: Treatment efficacy in mice bearing MDA-MB-231 tumors. The data set is classed as in vivo. Conditions: 2×15 mg CBZ/kg i.v. The protocol: as §1, §2
Data set [2] in a line: Pharmacokinetics in blood: CBZ in plasma by LC-MS/MS in MAS98.12 bearing mice. The class given is in vivo. Conditions: female, athymic nude foxn1nu, mouse, iv, 15 mg/kg, 15 mg/kg i.v. As to the method:
(§3) CBZ quantification by LC-MS/MS. CBZ, as the pure chemical or part of NPs, was quantified by LC-MS/MS, using an Agilent 1290 HPLC system coupled to an Agilent 6490 triple quadrupole mass spectrometer. The HPLC column was an Ascentis Express C8, 75×2.1 mm, 2.7 μm particles size with a 5×2.1 mm guard column of the same material (Sigma), run at 40° C. Eluent A was 25 mM formic acid in water and eluent B was 100% methanol, and flow rate was 0.5 ml/min. The mobile phase gradient was isocratic at 55% B for 1.5 min, then from 55% to 80% B over 1 min, followed by 1 min washout time and subsequently column re-equilibration. Injection volume was 5.00 μl. MS detection was in positive ESI mode (Agilent Jetstream) quantified in multiple reaction monitoring (MRM) mode using the transition m/z 858.3→577.2. The parent ion was chosen to be the Na adduct as this gave the best sensitivity. Similarly, the hexadeuterated internal standard was detected on the 864.4→583.2 transition. Both analytes were run at 380 V fragmentor and 20 V collision energy.
Processing of tissue samples before LC-MS/MS analyses. In order to process the tissue samples such that their CBZ content could be quantified, we developed a protocol for enzymatic digestion of tissue followed by extraction and quantification of CBZ using the LC-MS/MS method described above. […]

A short description of data set [3]: Biodistribution: CBZ in tumor and organs by LC-MS/MS in MAS98.12 bearing mice. The data set is classed as in vivo. The conditions noted are these: 15 mg/kg i.v. As to the method: as §3
Processing of tissue samples before LC-MS/MS analyses. In order to process the tissue samples such that their CBZ content could be quantified, we developed a protocol for enzymatic digestion of tissue followed by extraction and quantification of CBZ using the LC-MS/MS method described above. The enzyme buffer consisted of Dulbecco's Modified Eagle Medium (DMEM, Thermo Fisher Scientific, USA, 41965039) with 1% (v/v) penicillin-streptomycin stock solution (Sigma-Aldrich, P0781) to a final concentration of 100 U/ml penicillin and 100 μg/ml streptomycin, 0.125 mg/ml papain (Merck, F275644), 2.5 mg/ml trypsin (Sigma-Aldrich, T7409), 0.8 mg/ml collagenase (Sigma-Aldrich, C7926), 0.69 mg/ml hyaluronidase (Sigma-Aldrich, H3506) and 1% (v/v) Triton X-100 (Sigma-Aldrich, T-8787). To determine the biodistribution of CBZ, frozen organs (liver, spleen, lymph nodes, kidneys, tumors) were thawed and freshly prepared enzyme buffer was added at 1 ml per 50 mg tissue; the entire organs were digested. The samples were heated to 37° C. for 72 h with vortexing once a day, until the tissue was completely dissolved. The tissue digests, as well as the plasma samples from the animals, were diluted 10× in acetone before centrifugation; this has the dual effect of both precipitating proteins and other macromolecules, thus cleaning up the sample, and making sure all CBZ is solubilized. Internal standard (hexadeuterated CBZ) dissolved in acetone was added to a final concentration of 10 ng/ml during the acetone dilution to correct for possible matrix effects.
Biodistribution and pharmacokinetics in blood. Blood and tissue samples were obtained following a single i.v. injection of PEBCA-CBZ and non-encapsulated CBZ (15 mg/kg) into the tail vein of mice bearing the MAS98.12 tumor (n=3). Empty particles (PEBCA) and saline were used as negative controls. The blood samples were taken either per tail vein puncture (approximately after 2 min and thereafter at 1, 4 and 24 h after injection) or by terminal cardiac puncture (96 h after injection) in Vacutainer tubes containing EDTA (BD Biosciences, San Jose, Calif., USA) and kept on ice. The 0-24 h samples were collected consecutively from the same animals (n=3) while samples after 96 h were obtained from separate mice (n=3). The blood was centrifuged for 15 min at 4° C. and 3400×g, and the supernatant plasma was collected and stored at −80° C. until LC-MS/MS analysis. […]

In data set [4] the test system is CD68 (whole macrophage population). As to the kind of experiment: Macrophage infiltration in treated MAS98.12 tumors, immunohistochemistry with anti-CD68. The data set is classed as in vivo, mice. The conditions noted are these: 96 h after single injection; compared to free CBZ or saline; not statistically significant. The protocol:
(§4) Immunohistochemistry. Tumors from MAS98.12 bearing mice were collected 96 h after a single injection of the same substances as were injected in the MAS98.12 efficacy study. The tumors were preserved in 4% (v/v) formalin and then paraffinized and sliced to prepare consecutive slides (3 μm thick). The deparaffinization agent Neo-clear and mounting agent Neo-mount were obtained from VWR (Radnor, Pa., USA). Heat induced epitope retrieval was performed by placing deparaffinized slides with 10 mM sodium citrate buffer (pH 6.0) in water bath for 20 min at 100° C. Endogenous peroxidase activity was blocked by incubating slides with 3% (v/v) hydrogen peroxide in Tris-buffered saline (TBS; 50 mM Tris-Cl, 150 mM NaCl, pH 7.6). Sections were washed and blocking of non-specific binding was performed with 3% (w/v) bovine serum albumin (Roche diagnostics GmbH, Mannheim, Germany) in TBS for 30 min. Sections were then incubated for 60 min with the primary antibodies. […]
(§5) Stained tissue sections were scanned (NanoZoomer HT, Hamamatsu Photonics, Hamamatsu, Japan) using a 40× objective. The extent of CD68, iNOS and CD206 was automatically scored using the ImmunoPath software (Room4 Ltd., Crowborough, UK). […] The annotated representative areas were analyzed further by computerized image analysis. […]

Data set [5] deals with iNOS (M1, anti-tumorigenic pro-inflammatory macrophages). As to the kind of experiment: Macrophage infiltration in treated MAS98.12 tumors, immunohistochemistry with anti-iNOS. Conditions: 96 h after single injection. The class given is in vivo, mice. As to the method:
as §4, §5

Data set [6] relates to CD206 (M2, pro-tumorigenic anti-inflammatory macrophages). As to the kind of experiment: Macrophage infiltration in treated MAS98.12 tumors, immunohistochemistry with anti-CD206. The data set is classed as in vivo, mice. Conditions: 96 h after single injection. As to the method:
as §4, §5

Data set [7] relates to MDA-MB-231, MDA-MB-468 and MCF-7 cells. As to the kind of experiment: In vitro cellular toxicity: MTT cell viability (72 h) and [3H]thymidine incorporation (24 h) in three breast cancer cell lines. Conditions: MTT assay, 72 h incubation, all cell lines. The data set is classed as cell-based, human. As to the method: Cell lines. Three breast cancer cell lines were used in this study. The MDA-MB-231 (triple negative; Claudin low), was cultured in RPMI 1640; the MDA-MB-468 (triple negative; basal) and the MCF-7 (luminal A) cell lines were cultured in DMEM. All medium was fortified with 10% (w/v) fetal calf serum albumin (Sigma) and 100 units/ml penicillin/streptomycin (PenStrep®, Sigma). All cell lines were obtained from ATCC and were routinely tested for mycoplasma. Cells growing in 24- or 96-well plates were incubated with serial dilutions of PEBCA-CBZ, CBZ (non-encapsulated CBZ) dissolved in Tween-80 (Fluka)), and PEBCA without CBZ for 24, 48 or 72 h at 37° C. in an atmosphere of 5% CO2. The toxicity was assessed either by the commonly used MTT (3-(4,5-dimethylthiazol-2-yl)-2,5-diphenyltetrazolium bromide) cell viability assay, by measuring cell proliferation based on [^3H]thymidine incorporation, by measuring protein synthesis by incorporation of [^3H]leucine and by measuring ATP levels using CellTiter Glo®.
MTT cell viability assay. […] The absorbance was read in a plate reader (Biosys Ltd, Essex, UK) at 570 nm, and background from absorbance at 650 nm was subtracted.
Cell proliferation measured by [^3H]thymidine incorporation. […] The radioactivity was counted for 1 min in a scintillation counter (Tri-Carb 2100TR, Packard Bioscience, USA).
A general note: Dividing cells build labelled thymidine or BrdU into new DNA.

Where two headings read alike, the source gives them in different places.

As to `CO[C@H]1C(=O)[C@]2(C)[C@@H](OC)C[C@H]3OC[C@@]3(OC(C)=O)[C@H]2[C@H](OC(=O)c2ccccc2)[C@]2(O)C[C@H](OC(=O)[C@H](O)[C@@H](NC(=O)OC(C)(C)C)c3ccccc3)C(C)=C1C2(C)C` [CBZ, cabazitaxel], the Tumor growth result in data set [1] (2×15 mg CBZ/kg i.v. (particle dose 2×175 mg/kg), day 33 and 36) is on record as “markedly inhibited tumor growth”; with MDA-MB-231 tumors, “a delay in tumor growth was observed”. In addition, the “tumors in complete remission” value in data set [1] (2×15 mg CBZ/kg i.v., non-palpable tumors at day 57 after implantation) is 2 out of 9. Further, the “efficacy compared to MAS98.12” value with MDA-MB-231 tumors was “less effective”. Further, the half-life (usually how long it takes for the measured level to halve) in data set [2] (from mean values of the two last time points (24 and 96 h), read-out: elimination half-life (converted)) is about 60 h; in data set [2] (interpolation of the two first data points (up to 1 hr), read-out: distribution half-life) it was about 0.5 h. Besides, the “change of CBZ concentration in tissue from 24 to 96 h” value in data set [3] is recorded as “significantly lower in tumors after 96 h”. For the same compound, the “CBZ level in tumor relative to the PEBCA-CBZ group” value in data set [3] (24 h) is reported as “about ⅓”. For the same compound, in data set [3] (24 h), the “tissue with the highest CBZ amount” value is “the tumor”. In addition, the “tissues in which CBZ could be detected (above LOQ)” value in data set [3] (96 h) is reported as “only in the tumor tissue”. Moreover, in data set [3] (96 h, difference not significant (p=0.18)), the “CBZ concentration in tumors relative to that after PEBCA-CBZ” value was “approximately 50%”. Moreover, the “total tumor infiltrating macrophages (CD68)” value in data set [4] was “no response in the macrophage populations”. Besides, the “pro-inflammatory M1 macrophages (iNOS) in tumors” value in data set [5] was “no response in the macrophage populations”. The “anti-inflammatory M2 macrophages (CD206 positive cells) in tumors” value in data set [6] is listed as “no response in the macrophage populations”. For the same compound, the “fraction of the cells surviving even very high CBZ concentrations” value in data set [7] is 10-20%.
